The assay relates to rhizogenic calli derived from leaf explants. The assay is described as follows: adventitious shoot bud formation on rhizogenic calli derived from tea leaf explants. It is filed as cell-based, Camellia sinensis. The settings on record: rhizogenic calli transferred to auxin free MS medium with 0.5 to 8 mg/l 6 Benzyl amino purine.

The text below walks through data of patent US6599743B2, “Method for microproduction of tea plants from leaf explants” (Council of Scientific & Industrial Research, priority 2001, dated 2003).

Each structure is given as a SMILES string.

Experimental: iv) For adventitious shoot bud formation, the rhizogenic callus cultures obtained from step (iii) were transferred to (0.8%) agar solidified basal MS medium supplemented with 6 Benzyl amino purine (0.5 to 8.0 mg/l) and 3% sucrose.
After 4-10 weeks, the rhizogenic callus was transferred to (0.8%) agar solidified basal MS medium supplemented with 3% sucrose and 0.5 to 8.0 mg/l 6 Benzyl amino purine for adventitious shoot bud formation.

As to `c1ccc(CNc2ncnc3nc[nH]c23)cc1` [6 Benzyl amino purine], the “adventitious shoot bud development” value was “more than 30%” and the “explants responding (leaf explant response)” value is listed as approximately 100%.
